Experimental data published in BindingDB's records for doi:10.7270/Q2CF9NJZ (Nmmlsc, 2010).

These compounds were tested against Regulator of G-protein signaling 4 (Homo sapiens, UniProt P49798) (assay: small molecules altering RGS4 interaction with Galphao – biochemical, multiplexed bead flow cytometry, SAR compounds, SAR follow-up (AID 2295)). Conditions: not given.
Regulator of G-protein signaling 4, sequence (P49798 whole entry): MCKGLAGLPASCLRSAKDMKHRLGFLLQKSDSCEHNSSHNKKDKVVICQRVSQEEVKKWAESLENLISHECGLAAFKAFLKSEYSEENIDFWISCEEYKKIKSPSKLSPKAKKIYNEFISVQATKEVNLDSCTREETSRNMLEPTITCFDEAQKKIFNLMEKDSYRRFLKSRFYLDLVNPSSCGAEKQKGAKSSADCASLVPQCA

Point of comparison: `Cc1[nH]n(-c2ccccc2)c(=S)c1/C=N/c1cccc([N+](=O)[O-])c1` [(4E)-5-methyl-4-[(3-nitroanilino)methylene]-2-phenyl-2-pyrazoline-3-thione], EC50 11 µM. Against it:
- CN1CCN(C2=C(Cl)C(=O)C(c3cnc(N4CCCCC4)s3)=C(Cl)C2=O)CC1 — 33-fold lower, 0.336 µM
- CCN=c1scc(C)n1N=Cc1ccc(O)c(O)c1O — 3.1-fold lower, 3.52 µM
- CCN(CC)S(=O)(=O)c1cccc(C(=O)NN=Cc2ccc(O)c(O)c2O)c1 — 17-fold lower, 0.632 µM
- Cc1cccc(N2CCN(C(=O)COc3nsc4nc(C)cc(C)c34)CC2C)c1 (configuration not stated) — 1.6-fold lower, 6.85 µM
- Cc1cccc(N2CCN(C(=O)Cn3ccc4nc(C)cc(C)c4c3=O)CC2C)c1 (configuration not stated) [2,4-dimethyl-6-[2-[3-methyl-4-(3-methylphenyl)piperazin-1-yl]-2-oxidanylidene-ethyl]-1,6-naphthyridin-5-one] — higher, > 30 µM
- Cc1cc(C)c2c(=O)n(CC(=O)N3CCN(c4ccccc4)CC3)ccc2n1 [2,4-dimethyl-6-[2-oxidanylidene-2-(4-phenylpiperazin-1-yl)ethyl]-1,6-naphthyridin-5-one] — higher, > 30 µM
- Cc1cc(C)c2c(n1)CCN(CC(=O)N1CCN(c3ccccc3)CC1)C2=O [2,4-dimethyl-6-[2-oxidanylidene-2-(4-phenylpiperazin-1-yl)ethyl]-7,8-dihydro-1,6-naphthyridin-5-one] — higher, > 30 µM
- O=c1c2ccccc2sn1-c1ccc(S(=O)(=O)N2CCCC2)cc1 [2-(4-pyrrolidin-1-ylsulfonylphenyl)-1,2-benzothiazol-3-one] — 34-fold lower, 0.323 µM
- Cc1cccc(N2CCN(C(=O)COc3noc4nc(C)cc(C)c34)CC2C)c1 (configuration not stated) [2-[(4,6-dimethyl-[1,2]oxazolo[5,4-b]pyridin-3-yl)oxy]-1-[3-methyl-4-(3-methylphenyl)piperazin-1-yl]ethanone] — higher, > 30 µM
- O=c1c2ccccc2sn1-c1ccccc1 [2-phenyl-1,2-benzothiazol-3-one] — 81-fold lower, 0.135 µM
- O=C(NCCCN1CCOCC1)c1sc2cc([N+](=O)[O-])ccc2c1Cl [3-chloranyl-N-(3-morpholin-4-ylpropyl)-6-nitro-1-benzothiophene-2-carboxamide] — within 1.5-fold, 10.1 µM
- COC(=O)CCC(=O)Nc1sc(C)c(C)c1C(N)=O [4-[(3-carbamoyl-4,5-dimethyl-2-thienyl)amino]-4-keto-butyric acid methyl ester] — higher, > 30 µM
- CCN(CC)S(=O)(=O)c1cccc(-c2n[nH]c(=S)n2N=Cc2ccc(C(=O)OC)cc2)c1 [4-[(E)-[3-[3-(diethylsulfamoyl)phenyl]-5-thioxo-1H-1,2,4-triazol-4-yl]iminomethyl]benzoic acid methyl ester] — within 1.5-fold, 9.64 µM
- NS(=O)(=O)c1ccc(N=NCc2ccc(O)c(O)c2O)c([N+](=O)[O-])c1 [4-[[(E)-(2,3-dihydroxy-4-oxo-1-cyclohexa-2,5-dienylidene)methyl]hydrazo]-3-nitrobenzenesulfonamide] — 9.2-fold lower, 1.2 µM
- CCOC(=O)c1sc(NC(=O)CSc2nnc(Cc3ccccc3)o2)c(C#N)c1C [4-cyano-3-methyl-5-[[1-oxo-2-[[5-(phenylmethyl)-1,3,4-oxadiazol-2-yl]thio]ethyl]amino]-2-thiophenecarboxylic acid ethyl ester] — within 1.5-fold, 7.85 µM
- CN=c1scc(C)n1N=Cc1ccc(O)c(O)c1O [(4E)-2,3-dihydroxy-4-[[(4-methyl-2-methylimino-1,3-thiazol-3-yl)amino]methylidene]cyclohexa-2,5-dien-1-one] — 6.4-fold lower, 1.71 µM
- Cc1cccc(N2CCN(C(=O)CN3CCc4nc(C)cc(C)c4C3=O)CC2C)c1 (configuration not stated) [KUC103675N] — higher, > 30 µM
- Cc1cc(Cl)ccc1/N=c1/ssnc1Cl [MLS000539990] — 37-fold lower, 0.3 µM
- O=C1C(Cl)=C(N2CCCCC2)C(=O)C(Cl)=C1c1cnc(N2CCCCC2)s1 [MLS000550549] — 41-fold lower, 0.269 µM
- CCC(=O)NC(c1ccc(C)cc1)c1cc([N+](=O)[O-])c2cccnc2c1O (configuration not stated) [MLS000553854] — 1.7-fold lower, 6.61 µM
- COc1ccc(C2=CC(=O)C=CC2=O)cc1 [MLS001029846] — 19-fold lower, 0.573 µM
- O=C(COc1ccccc1C(=O)NN=Cc1ccc(O)c(O)c1)NN=Cc1ccc(O)c(O)c1 [N''-[(Z)-(3-hydroxy-4-oxo-1-cyclohexa-2,5-dienylidene)methyl]-2-[2-[[(Z)-(3-hydroxy-4-oxo-1-cyclohexa-2,5-dienylidene)methyl]hydrazo]-2-oxoethoxy]benzohydrazide] — 67-fold lower, 0.164 µM
- CC1(C)OC(=O)C(=Cc2ccc(-c3ccc(S(N)(=O)=O)cc3)o2)C(=O)O1 [SMR000273939] — higher, > 30 µM
- O=C(Cc1csc(N2CCOCC2)n1)NN=Cc1ccc(O)c(O)c1O [SMR000369439] — 10-fold lower, 1.1 µM
- Nc1c(C(=O)NCC2CCCO2)sc2nc3c(c(-c4ccco4)c12)CC/C3=C/c1ccco1 (configuration not stated) [UNM-0000305796] — higher, > 30 µM

Same assay, conditions: inactive by the depositor's call

For `CCOc1ccccc1-c1c2cc(O)c(=O)cc-2oc2cc(O)c(O)cc12` [MLS000578271], the EC50 was 3.66 µM.
